Where two headings read alike, the source gives them in different places. Values belong to the compound of their own block, whether it stands above or below them.
How the values were obtained:
Format in all cases: cell-based
[1] = molecular target: T1, BRD4 (Homo sapiens, UniProt O60885); assay: Western blot, protein degradation (DC50)
T1 construct: endogenous in cells
Protocol: (§1) Cells were treated with the compound for a period of time, after that the cells were collected by centrifugation. After washing with PBS, the cells were lysed by adding RIPA buffer; the cell lysate were added to the loading buffer and then appropriate volume were taken and slowly added to the corresponding wells of the gel plate, and run the SDS-PAGE gel (4%-12%). After running the gel, transferred to the PVDF membrane and sealed with 5% skimmed milk powder at room temperature for 1 hour. The membrane was placed in the primary antibody diluted with 5% skimmed milk powder and shaked slowly overnight at 4° C. After incubation with primary antibody, the membrane was washed 3 times using a TBST shaker; added secondary antibody diluted with 5% skimmed milk powder corresponding to the primary antibody, and shaked slowly at room temperature for 1 hour. After incubation with secondary antibody, the membrane was washed 3 times using the TBST shaker again. The PVDF membrane was flatted in the cassette, the strip was evenly infiltrated with ECL developer solution, and placed in ChemDoc XRS+ gel imager for taking pictures. The intensity of protein bands was analyzed quantitatively using ImageJ software.

[2] = molecular target: T2, PLK1 (Homo sapiens, UniProt P53350); assay: Western blot, protein degradation (DC50)
T2 construct: endogenous in cells
T2 sequence (P53350 whole entry): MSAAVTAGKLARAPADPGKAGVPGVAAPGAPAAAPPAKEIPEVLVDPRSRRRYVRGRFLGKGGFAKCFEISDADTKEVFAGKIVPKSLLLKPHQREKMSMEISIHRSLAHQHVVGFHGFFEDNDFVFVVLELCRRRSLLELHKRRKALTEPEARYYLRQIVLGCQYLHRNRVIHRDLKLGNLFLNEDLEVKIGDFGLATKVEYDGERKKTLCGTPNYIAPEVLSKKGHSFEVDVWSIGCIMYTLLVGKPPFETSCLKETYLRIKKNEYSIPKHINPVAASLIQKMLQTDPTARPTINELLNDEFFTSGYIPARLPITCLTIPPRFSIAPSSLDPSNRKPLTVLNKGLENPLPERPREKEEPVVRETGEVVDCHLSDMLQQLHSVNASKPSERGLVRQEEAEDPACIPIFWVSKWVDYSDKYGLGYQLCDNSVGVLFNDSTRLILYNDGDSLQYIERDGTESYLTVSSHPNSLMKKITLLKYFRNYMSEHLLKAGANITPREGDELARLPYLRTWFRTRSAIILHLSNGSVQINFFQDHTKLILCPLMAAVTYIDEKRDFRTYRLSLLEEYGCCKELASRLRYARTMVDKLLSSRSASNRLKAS
Protocol: as §1

[3] = test system: Human Monocytic Leukemia MV4-11; assay: Cell proliferation experiment (Alarm blue, 72 h, EC50); conditions: Homo sapiens
Method in brief: (§2)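 Log-phase cells, passaged at least 2 generations, were seeded in 96-well plates and exposed to test compound in complete medium as a 5-fold dilution series in duplicate for 72 h. Fluorescence was read by Alamar blue and EC50 fitted to a four-parameter curve (Min, Max, Slope).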

[4] = test system: Human Colon Cancer HCT-116; assay: as above; conditions: Homo sapiens, HCT-116; HCT116 cells
Method in brief: as §2

[5] = 6 h, western blot, read-out: BRD4 DC50 (6 h)
[6] = 6 h, western blot, read-out: PLK1 DC50 (6 h)
[7] = 24 h, western blot, read-out: BRD4 DC50 (24 h)
[8] = 24 h, western blot, read-out: PLK1 DC50 (24 h)
[9] = 24 h, read-out: BRD4 DC50 (24 h)

Structure (SMILES): CC[C@@H]1C(=O)N(C)c2cnc(Nc3ccc(C(=O)NCCNc4cccc5c4CN(C4CCC(=O)NC4=O)C5=O)cc3OC)nc2N1C1CCCC1 (stereo partly shown) [UB-180567]
DC50 [1, 5]: > 1000 nM
DC50 [2, 6]: > 1000 nM
EC50 ([3]; MV4-11, MV4;11 cells): 10 to 100 nM

Structure (SMILES): CC[C@@H]1c2c(C#N)ncn2-c2cnc(Nc3ccc(C(=O)NCCOCCOCCOCC(=O)Nc4cccc5c4C(=O)N(C4CCC(=O)NC4=O)C5=O)cc3OC)nc2N1Cc1ccc(Br)cc1 (stereo partly shown) [UB-180594]
DC50 ([1]; 6 h, read-out: BRD4 DC50 (6 h)): > 1000 nM
DC50 ([2]; 6 h, read-out: PLK1 DC50 (6 h)): > 1000 nM

Structure (SMILES): CC[C@@H]1C(=O)N(C)c2cnc(Nc3ccc(C(=O)NCCCNCCCCCC(=O)Nc4cccc5c4CN(C4CCC(=O)NC4=O)C5=O)cc3OC)nc2N1C1CCCC1 (stereo partly shown) [UB-180659]
DC50 [1, 7]: < 10 nM
DC50 [2, 8]: 100 to 1000 nM
EC50 ([3]; MV4;11 cells): 10 to 100 nM

Structure (SMILES): CC[C@@H]1C(=O)N(C)c2cnc(Nc3ccc(C(=O)NCCOCCOCCOCCNCC(=O)Nc4cccc5c4CN(C4CCC(=O)NC4=O)C5=O)cc3OC)nc2N1C1CCCC1 (stereo partly shown) [UB-180663]
DC50 [1, 5]: < 10 nM
DC50 [1, 7]: < 10 nM
DC50 [2, 6]: < 10 nM
DC50 [2, 8]: < 10 nM
EC50 ([3]; MV4;11 cells): 10 to 100 nM

Structure (SMILES): O=C1CCC(N2Cc3c(NC(=O)COCCOCCOCCNC(=O)c4ccc(Nc5ncc6c(n5)-c5ccc(Cl)cc5C(c5c(F)cccc5F)=NC6)cc4)cccc3C2=O)C(=O)N1 (stereo not shown) [UB-180520]
EC50 ([3]; MV4-11, MV4;11 cells): 10 to 100 nM
EC50 [4]: > 1000 nM

Structure (SMILES): O=C1CCC(N2Cc3c(NC(=O)CCOCCOCCOCCOCCNC(=O)c4ccc(Nc5ncc6c(n5)-c5ccc(Cl)cc5C(c5c(F)cccc5F)=NC6)cc4)cccc3C2=O)C(=O)N1 (stereo not shown) [UB-180530]
EC50 ([3]; MV4-11, MV4;11 cells): 10 to 100 nM
EC50 [4]: > 1000 nM

Structure (SMILES): CC[C@@H]1C(=O)N(C)c2cnc(Nc3ccc(C(=O)NCCOCCOCCOCCNCCCC(=O)Nc4cccc5c4CN(C4CCC(=O)NC4=O)C5=O)cc3OC)nc2N1C1CCCC1 (stereo partly shown) [UB-180636]
DC50 ([1]; 6 h, read-out: BRD4 DC50 (6 h)): 10 to 100 nM
DC50 ([2]; 6 h, read-out: PLK1 DC50 (6 h)): 10 to 100 nM
EC50 ([3]; MV4;11 cells): 10 to 100 nM

Structure (SMILES): O=C1CCC(N2Cc3c(NC(=O)CCOCCCOCCOCCNC(=O)[C@]4(Cc5cccc(Nc6nccs6)n5)CC[C@@H](Oc5cccc(Cl)c5F)CC4)cccc3C2=O)C(=O)N1 (stereo partly shown) [UB-180611]
EC50 ([3]; MV4-11, MV4;11 cells): 10 to 100 nM
EC50 [4]: > 1000 nM

Structure (SMILES): O=C1CCC(N2Cc3c(NC(=O)COCCCNC(=O)c4ccc(Nc5ncc6c(n5)-c5ccc(Cl)cc5C(c5c(F)cccc5F)=NC6)cc4)cccc3C2=O)C(=O)N1 (stereo not shown) [UB-180502]
EC50 ([3]; MV4-11, MV4;11 cells): 10 to 100 nM
EC50 [4]: 100 to 1000 nM

The next lines start with the values.

DC50 [1, 7]: < 10 nM
DC50 [2, 8]: 10 to 100 nM
EC50 ([3]; MV4-11, MV4;11 cells): 10 to 100 nM
Structure (SMILES): CC[C@@H]1C(=O)N(C)c2cnc(Nc3ccc(C(=O)NC4CCN(CCNCCOCC(=O)Nc5cccc6c5CN(C5CCC(=O)NC5=O)C6=O)C4)cc3OC)nc2N1C1CCCC1 (stereo partly shown) [UB-180703]

DC50 [1, 5]: 10 to 100 nM
DC50 [2, 6]: 10 to 100 nM
EC50 ([3]; MV4-11, MV4;11 cells): 10 to 100 nM
Structure (SMILES): CC[C@@H]1C(=O)N(C)c2cnc(Nc3ccc(C(=O)NCCCNCCCCC(=O)Nc4cccc5c4CN(C4CCC(=O)NC4=O)C5=O)cc3OC)nc2N1Cc1ccc(Cl)s1 (stereo partly shown) [UB-180673]

DC50 ([1]; 24 h, read-out: BRD4 DC50 (nM) (24 h)): 100 to 1000 nM
DC50 ([2]; 24 h, read-out: PLK1 DC50 (nM) (24 h)): 100 to 1000 nM
EC50 ([3]; MV4-11, MV4;11 cells): 100 to 1000 nM
Structure (SMILES): CC[C@@H]1c2c(C#N)ncn2-c2cnc(Nc3ccc(C(=O)NCc4cn(CCNCCOCC(=O)Nc5cccc6c5CN(C5CCC(=O)NC5=O)C6=O)nn4)cc3OC)nc2N1C1CCCC1 (stereo partly shown) [UB-180718]

DC50 [1, 5]: < 10 nM
DC50 [2, 6]: < 10 nM
EC50 ([3]; MV4-11, MV4;11 cells): < 10 nM
Structure (SMILES): CC[C@@H]1C(=O)N(C)c2cnc(Nc3ccc(C(=O)NCCCNCCCCCCCC(=O)Nc4cccc5c4CN(C4CCC(=O)NC4=O)C5=O)cc3OC)nc2N1Cc1ccc(Cl)s1 (stereo partly shown) [UB-180674]

DC50 [1, 7]: < 10 nM
DC50 [2, 8]: 10 to 100 nM
EC50 ([3]; MV4-11, MV4;11 cells): 10 to 100 nM
Structure (SMILES): CC[C@@H]1C(=O)N(C)c2cnc(Nc3ccc(C(=O)NCCOCCOCCOCCNCCCCC(=O)Nc4cccc5c4CN(C4CCC(=O)NC4=O)C5=O)cc3OC)nc2N1C1CCCC1 (stereo partly shown) [UB-180666]

DC50 [1, 9]: < 10 nM
EC50 ([3]; MV4-11, MV4;11 cells): 10 to 100 nM
Structure (SMILES): CC[C@@H]1C(=O)N(C)c2cnc(Nc3ccc(C(=O)NCCCOCC(N)COCCC(=O)Nc4cccc5c4CN(C4CCC(=O)NC4=O)C5=O)cc3OC)nc2N1C1CCCC1 (stereo partly shown) [UB-180624]

EC50 ([3]; MV4-11, MV4;11 cells): 100 to 1000 nM
EC50 [4]: > 1000 nM
Structure (SMILES): Cc1sc2c(c1C)C(c1ccc(Cl)cc1)=N[C@@H](CC(=O)NCCCNCCCCCCC(=O)Nc1cccc3c1CN(C1CCC(=O)NC1=O)C3=O)c1nnc(C)n1-2 (stereo partly shown) [UB-180629]

DC50 [1, 9]: < 10 nM
DC50 ([2]; 24 h, read-out: PLK1 DC50 (24 h)): 10 to 100 nM
EC50 ([3]; MV4-11, MV4;11 cells): 10 to 100 nM
Structure (SMILES): CC[C@@H]1C(=O)N(C)c2cnc(Nc3ccc(C(=O)NCCCNCCCCCCC(=O)Nc4cccc5c4CN(C4CCC(=O)NC4=O)C5=O)cc3OC)nc2N1C1CCCC1 (stereo partly shown) [UB-180631]

DC50 ([1]; 6 h, read-out: BRD4 DC50 (6 h)): < 10 nM
DC50 ([2]; 6 h, read-out: PLK1 DC50 (6 h)): < 10 nM
EC50 ([3]; MV4-11, MV4;11 cells): 10 to 100 nM
Structure (SMILES): CC[C@@H]1C(=O)N(C)c2cnc(Nc3ccc(C(=O)NCCCNCCCCCCCC(=O)Nc4cccc5c4CN(C4CCC(=O)NC4=O)C5=O)cc3OC)nc2N1C1CCCC1 (stereo partly shown) [UB-180632]
